Read-outs that look alike come from different tables or passages of the source.
Key:
[1] = system: subjects having essential hypertension; details: cited from earlier work
[2] = system: patients with resistant hypertension; assay: PRECISION phase 3 trial: safety assessments; format: in vivo, human; details: for tolerability: 12.5 mg and 25 mg, up to 48 weeks; for treatment-emergent adverse events (TEAEs), patients: 4-week double-blind period, placebo 19.4%; for edema/fluid retention, patients: 4-week part 1, placebo 2.1%; for discontinuation from study treatment due to an adverse event: first 4 weeks double-blind, placebo 0.8%; for estimated plasma volume increase: placebo 0.51%
Description: (§1) A single, randomized study with three sequential treatment parts was designed. The study design addressed both the 4-week placebo-controlled efficacy of 12.5 and 25 mg aprocitentan (Part 1) and the durability of its effects in long-term active treatment with 25 mg aprocitentan for a further 32 weeks (Part 2) followed by a 12-week placebo-controlled withdrawal period with patients re-randomized to 25 mg or placebo (Part 3) (see for example Danaietash P et al; Identifying and treating resistant hypertension in PRECISION—a randomized long-term clinical trial with Aprocitentan. J Clin Hypertension 2022 (in press). Patients with uncontrolled BP (measured as unattended automated office BP) despite the use of three or more antihypertensive medications for at least 1 year were screened. They were switched to a single-tablet triple fixed combination antihypertensive therapy for at least 4 weeks before entering a single-blind placebo run-in period. The 4-week placebo run-in period further excluded placebo responders. The randomization period consisted of 3 sequential parts: • 1) a 4-week double-blind part with aprocitentan 12.5 mg, 25 mg, or placebo (1:1:1 ratio); • 2) a 32-week single-blind part with aprocitentan 25 mg; and • 3) a 12-week randomized withdrawal part with aprocitentan 25 mg or placebo (1:1 ratio).
(§2) • Part 1: Double-blind, randomized parallel-group and placebo-controlled and lasts for 4 weeks. Subjects received (1:1:1 ratio), 25 or 12.5 mg aprocitentan, or placebo. • Part 2: Single-blind and single-arm, lasts for 32 weeks. All subjects received aprocitentan 25 mg. • Part 3: Double-blind withdrawal. All subjects completing part 2 and entering part 3 are re-randomized (1:1 ratio) to either aprocitentan 25 mg or placebo.
Safety assessments include (treatment emergent) adverse events (TEAEs) including TEAEs leading to premature discontinuation of study treatment; adverse events of special interest (AESIs): hepatic disorders, anemia (or hemodilution), edema/fluid retention, and decompensation/aggravation of heart failure; treatment-emergent major adverse cardiovascular events (MACEs)/MACE-plus defined as cardiovascular death, non-fatal myocardial infarction (MI), or non-fatal stroke, or hear filure leading to hospitalization confirmed by the Central Adjudication Committee (CAC); as well as vital signs, body weight, clinical laboratory assessments, and 12-lead electrocardiograms.

[3] = in comparison to corresponding alkylated derivatives; cited from earlier work
[4] = system: rat models of hypertension; details: cited from earlier work
[5] = system: patients with resistant hypertension; assay: PRECISION phase 3 trial: trough unattended automated office blood pressure (uAOBP); format: in vivo, human; details: for office SBP at 4 weeks, difference versus placebo (SE): part 1 (primary endpoint); for least square mean (SE) change in office SBP at 4 weeks: part 1, on standardized background therapy; for office DBP decrease compared with placebo: week 4, part 1
Description: as §1
The standardized byckground treatment (SBT) is a single-tablet triple fixed combination of a CCB (amlodipine), an ARB (valsartan), and a diuretic (hydrochlorothiazide); two dose strengths are available: 5/160/25 mg and 10/160/25 mg, respectively. The maximum tolerated dose strength is selected at the investigator's discretion during the treatment period of the study and must be kept stable for at least 1 week prior to randomization continuing through the end of the DB part and again during the DB-WD part. Patients who are treated with a β-blocker at screening will continue their treatment throughout the study.
Study treatment and SBT are to be taken every morning except on the morning of study visit days, where treatment is administered after the completion of the visit assessments and the measurement of BP.
Trough uAOBP is measured at each visit with the same automated oscillometric sphygmomanometer (Microlife® WatchBP Office), which records 5 sitting BP readings (one per minute, first value excluded from the average), with the patient resting undisturbed, alone (unattended) in a quiet place for 5 minutes.
as §2
The primary efficacy endpoint is the change from baseline to Week 4 of DB treatment in mean trough SiSBP measured as uAOBP, where baseline is defined as the last available measurement before the start of DB treatment. […]
(§3) Other secondary efficacy endpoints include • changes from baseline to Week 4 and from DB-WD baseline to Week 40 in mean trough sitting diastolic blood pressure (SiDBP) measured as uAOBP. • and changes in systolic/diastolic BP measured by ABPM, including changes from baseline to Week 4 of DB treatment in 24-h mean SBP and DBP, changes from baseline to Week 4 in daytime and night-time mean SBP and DBP, changes from DB-WD baseline (Week 36) to Week 40 in 24-h mean SBP and DBP, and changes from DB-WD baseline (Week 36) to Week 40 in daytime and night-time mean SBP and DBP.

[6] = system: patients with resistant hypertension; assay: PRECISION phase 3 trial: ambulatory blood pressure monitoring (ABPM); format: in vivo, human; details: for 24 h ambulatory DBP, placebo-corrected decrease / 24 h ambulatory SBP, placebo-corrected decrease: end of part 1 (week 4)
Description: as §1
ABPM is performed over a 24-hour period with the Mobil-O-Graph NG device at baseline, and Weeks 4, 36, and 40. Systolic BP and diastolic BP are measured every 20 minutes from 06:00-23:00 and every 30 minutes from 23:00-06:00. Monitoring is initiated between 06:00 and 11:00.
as §2, §3

[7] = subjects with CKD stage 3-4, baseline to Week 4
[8] = Black or African Americans, baseline to Week 4
[9] = part 3, after 4 weeks of withdrawal (week 40), aprocitentan 25 mg

SMILES: NS(=O)(=O)Nc1ncnc(OCCOc2ncc(Br)cn2)c1-c1ccc(Br)cc1 [aprocitentan, {5-(4-bromo-phenyl)-6-[2-(5-bromo-pyrimidin-2-yloxy)-ethoxy]-pyrimidin-4-yl}-sulfamide]
- tolerability ([1]; across all four doses (5, 10, 25, 50 mg)): well tolerated
- cases of increased liver enzymes above three times the upper limit of the normal range ([1]; aprocitentan 5 mg group): one
- cases of peripheral edema ([1]; aprocitentan 25 mg group): two
- cases of peripheral edema ([1]; aprocitentan 50 mg group): two
- mean body weight change from baseline ([1]; aprocitentan 5 and (10) mg groups): remained unchanged
- mean body weight increase from baseline ([1]; aprocitentan 25 and 50 mg groups): 0.4 kg
- tolerability [2]: generally well tolerated
- tolerability ([2]; listed as Aprocitentan): generally well tolerated
- treatment-emergent adverse events (TEAEs), patients ([2]; aprocitentan 12.5 mg): 27.6%
- edema/fluid retention, patients ([2]; aprocitentan 12.5 mg): 9.1%
- discontinuation from study treatment due to an adverse event ([2]; aprocitentan 12.5 mg): 2.5%
- estimated plasma volume increase ([2]; aprocitentan 12.5 mg, part 1): 10.5%
- haemoglobin concentration change ([2]; aprocitentan 12.5 mg, part 1, placebo −0.4): -8.0 g/L
- treatment-emergent adverse events (TEAEs), patients ([2]; aprocitentan 25 mg): 36.7%
- edema/fluid retention, patients ([2]; aprocitentan 25 mg): 18.4%
- oedema or fluid retention, patients ([2]; aprocitentan 25 mg, 12-week part 3, placebo 1.3%): 2.6%
- oedema or fluid retention, patients ([2]; aprocitentan 25 mg, 32-week part 2): 18.2%
- discontinuation from study treatment due to an adverse event ([2]; aprocitentan 25 mg): 2.0%
- admission to hospital for heart failure, patients ([2]; aprocitentan 25 mg, part 1 (two of 245)): 0.8%
- patients who discontinued due to oedema or fluid retention ([2]; aprocitentan 25 mg, part 1, of 245 patients): one
- estimated plasma volume increase ([2]; aprocitentan 25 mg, part 1): 11.2%
- admission to hospital for heart failure, patients ([2]; aprocitentan 25 mg, part 2 (six of 704)): 0.9%
- patients who discontinued due to oedema or fluid retention ([2]; aprocitentan 25 mg, part 2, of 704 patients): five
- admission to hospital for heart failure, patients ([2]; aprocitentan 25 mg, part 3 (two of 310), placebo 0.3%): 0.6%
- patients who discontinued due to oedema or fluid retention ([2]; aprocitentan 25 mg, part 3, of 310 patients): one
- patients who discontinued treatment due to edema/fluid retention ([2]; aprocitentan 25 mg, parts 1-3, <1%): seven
- bodyweight ([2]; both aprocitentan doses, part 1, decrease with placebo): moderate increase
- serious edema/fluid retention adverse events ([2]; both on aprocitentan 25 mg, <1%): Two
- edema/fluid retention events mild to moderate in intensity ([2]; entire study duration): > 95%
- patients who developed edema/fluid retention at one time point ([2]; entire study duration): Approximately 30%
- hepatotoxicity ([2]; in vivo): No signs
- NT-proBNP and MR-proANP ([2]; part 1, stabilisation in part 2, reversal in part 3): Slight increases
- eGFR ([2]; part 1 versus placebo): decreased slightly
- decrease of hemoglobin value from baseline to week 36 ([2]; preliminary data, subjects with SGLT-2 inhibitor plus standardized antihypertensive background therapy, small sample size): smaller decrease
- clearance in vivo [3]: much shorter
- half-life in vivo [3]: much longer
- pharmacological effect in combination with ACE inhibitors such as enalapril ([4]; in certain models): synergistic
- pharmacological effect in combination with angiotensin receptor blockers such as valsartan ([4]; rat, in vivo): synergistic
- pharmacological effect in combination with calcium channel blockers such as amlodipine ([4]; rat, in vivo): additive
- office SBP at 4 weeks, difference versus placebo (SE) ([5]; aprocitentan 12.5 mg): statistically significant and clinically meaningful reduction
- least square mean (SE) change in office SBP at 4 weeks ([5]; aprocitentan 12.5 mg): −15.3 (0.9) mm Hg
- office DBP decrease compared with placebo ([5]; aprocitentan 12.5 mg): −3.9 mm Hg
- office blood pressure reduction from baseline during part 2 ([5]; aprocitentan 25 mg, 32-week single-blind part 2, patients previously on aprocitentan): maintained
- office SBP at 4 weeks, difference versus placebo (SE) ([5]; aprocitentan 25 mg): statistically significant and clinically meaningful reduction
- least square mean (SE) change in office SBP at 4 weeks ([5]; aprocitentan 25 mg): −15.2 (0.9) mm Hg
- office DBP decrease compared with placebo ([5]; aprocitentan 25 mg): −4.5 mm Hg
- office DBP increase with placebo compared with aprocitentan ([5]; part 3, after 4 weeks of withdrawal, aprocitentan 25 mg): 5.2 mm Hg
- difference 25 mg versus 12.5 mg in LS mean reduction, primary endpoint SiSBP [5, 7]: up to −5.88 mmHg
- further decrease in SiSBP with 25 mg compared with 12.5 mg [5, 7]: 44%
- difference 25 mg versus 12.5 mg in LS mean BP reduction with ABPM (night-time SBP) [6, 8]: up to −5.90 mmHg
- further decrease in night-time SBP with 25 mg compared to 12.5 mg [6, 8]: > 100%
- 24 h ambulatory DBP, placebo-corrected decrease ([6]; aprocitentan 12.5 mg): −4.3 mm Hg
- 24 h ambulatory SBP, placebo-corrected decrease ([6]; aprocitentan 12.5 mg): −4.2 mm Hg
- placebo-corrected SBP lowering effect during the daytime ([6]; aprocitentan 12.5 mg, week 4): −3.8 mm Hg
- placebo-corrected SBP lowering effect during the night time ([6]; aprocitentan 12.5 mg, week 4): −5.1 mm Hg
- 24 h ambulatory DBP, placebo-corrected decrease ([6]; aprocitentan 25 mg): −5.8 mm Hg
- 24 h ambulatory SBP, placebo-corrected decrease ([6]; aprocitentan 25 mg): −5.9 mm Hg
- placebo-corrected SBP lowering effect during the daytime ([6]; aprocitentan 25 mg, week 4): −5.3 mm Hg
- 24 h ambulatory DBP increase with placebo compared with aprocitentan [6, 9]: 6.8 mm Hg
- 24 h ambulatory SBP increase with placebo compared with aprocitentan [6, 9]: 6.5 mm Hg

From patent US20250345332A1, “APROCITENTAN FOR THE TREATMENT OF HYPERTENSION” (IDORSIA PHARMACEUTICALS LTD, priority 2022, published 2025)
